Some test systems named below: DU-145 prostate; HOP-62 NSCLC; NCI-H460 lung; OVCAR-8 ovarian; SF-268 CNS; SK-MEL-5 melanoma; SK-OV-3 ovarian; SNB-75 CNS; U251 CNS; UO-31 renal.
Holding throughout (experiment): NCI-60 cell line screen, 48 h

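Where inhibition never reached the appropriate level, the endpoint shown equals the highest concentration tested. Otherwise, values were interpolated linearly from a five-concentration, 48-hour dose response in 96-well plates. The concentration for 50% growth inhibition is given as GI50. TGI denotes the concentration required for complete inhibition of growth.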 Some results are limits rather than exact numbers.

For `CCOP(=O)(OCC)/C(C#N)=C/c1cccn1C(C)C`, the TGI in the test on DU-145 prostate, with HOP-62 NSCLC, in the test on NCI-H460 lung, in the test with OVCAR-8 ovarian, with SF-268 CNS and with SK-MEL-5 melanoma was greater than 100 µM throughout. The TGI with SK-OV-3 ovarian, in the test with SNB-75 CNS, in the test with U251 CNS and in the test with UO-31 renal was greater than 100 µM in each case.
For the compound `CCCCn1c(CSc2ccc(Cl)cc2)c(C(=O)OCC)c2cc(OC)c(Br)cc21`, the TGI in the test on DU-145 prostate, with HOP-62 NSCLC, in the test on NCI-H460 lung, in the test with OVCAR-8 ovarian, in the test with SF-268 CNS and in the test with SK-MEL-5 melanoma was greater than 100 µM in each case. For the same compound, the TGI in the test on SK-OV-3 ovarian, in the test with SNB-75 CNS, in the test with U251 CNS and in the test on UO-31 renal was greater than 100 µM in each case.
Consider `Cc1ccc(C2(c3ccc(Cl)cc3)c3ccccc3C3=NCCN32)cc1` (centres undefined), for which the TGI in the test on DU-145 prostate was determined as 26.1 µM; with HOP-62 NSCLC, 23.8 µM; with NCI-H460 lung, 20.7 µM; with OVCAR-8 ovarian, 29.4 µM; in the test on SF-268 CNS it was 31.5 µM; in the test with SK-MEL-5 melanoma, 23.2 µM. Further, the TGI with SK-OV-3 ovarian amounted to 20.7 µM; with SNB-75 CNS, 24.9 µM; with U251 CNS, 29 µM; with UO-31 renal, 18.1 µM.
For the compound `NNC(=O)CC(=O)Nc1cccc(Cl)c1`, the TGI in the test on DU-145 prostate, in the test on HOP-62 NSCLC, in the test with NCI-H460 lung, in the test on OVCAR-8 ovarian, with SF-268 CNS and in the test on SK-MEL-5 melanoma was greater than 100 µM in each case. Besides, the TGI in the test with SK-OV-3 ovarian, in the test on SNB-75 CNS, in the test on U251 CNS and in the test on UO-31 renal was greater than 100 µM in each case.
On to `Cc1c(C)c(C)c(Cn2[nH]c(=O)n(C)c2=O)c(C)c1C`, for which the TGI in the test with DU-145 prostate, in the test with HOP-62 NSCLC, with NCI-H460 lung, with OVCAR-8 ovarian, with SF-268 CNS and with SK-MEL-5 melanoma was greater than 100 µM each time. The TGI in the test with SK-OV-3 ovarian, with SNB-75 CNS, in the test on U251 CNS and with UO-31 renal was greater than 100 µM in each case.
Consider `COc1ccc(OC)c(NCC(=O)Nn2cnc3ccc(S(=O)(=O)Nc4cc(OC)ccc4OC)cc3c2=O)c1`, for which the TGI in the test on DU-145 prostate, with HOP-62 NSCLC, in the test on NCI-H460 lung, in the test with OVCAR-8 ovarian, with SF-268 CNS and in the test with SK-OV-3 ovarian was greater than 100 µM throughout. In addition, the TGI with SNB-75 CNS, with U251 CNS and in the test on UO-31 renal was greater than 100 µM throughout.
Consider `NC(N)=NS(=O)(=O)c1ccc(N/N=C2/CCOC2=O)cc1`, for which the TGI in the test with DU-145 prostate is greater than 100 µM; in the test on HOP-62 NSCLC, 77.8 µM; in the test on NCI-H460 lung, greater than 100 µM; in the test on OVCAR-8 ovarian it was greater than 100 µM; in the test on SF-268 CNS it was greater than 100 µM; with SK-MEL-5 melanoma, greater than 100 µM. The TGI was greater than 100 µM in the test with SK-OV-3 ovarian, 58.7 µM with SNB-75 CNS, greater than 100 µM in the test with U251 CNS and greater than 100 µM in the test on UO-31 renal.
As to `COc1ccc(/C=C/C(=O)/C=C/c2ccc(OC)cc2OC)c(OC)c1`, the TGI in the test with DU-145 prostate amounted to 35.3 µM; in the test on HOP-62 NSCLC, 81.1 µM; with NCI-H460 lung, 24 µM; in the test on OVCAR-8 ovarian, 41.1 µM; with SF-268 CNS, 33.7 µM; in the test with SK-MEL-5 melanoma, 16.9 µM. The TGI with SK-OV-3 ovarian was determined as 37.7 µM; with SNB-75 CNS, 45.1 µM; in the test with U251 CNS, 23.4 µM; in the test with UO-31 renal, 41.3 µM.
Take `CC(=O)c1[nH]c(NC(C)C)c(C(=S)Nc2ccccc2)c1N`: the TGI in the test on DU-145 prostate was greater than 100 µM; in the test on HOP-62 NSCLC it was greater than 100 µM; in the test with NCI-H460 lung, greater than 100 µM; with OVCAR-8 ovarian, 94.9 µM; in the test on SF-268 CNS, 65.9 µM; in the test with SK-MEL-5 melanoma, 42.2 µM. In addition, the values for the TGI with SK-OV-3 ovarian, in the test on SNB-75 CNS and in the test on UO-31 renal were greater than 100 µM, greater than 100 µM and 77.7 µM, respectively.
Take `COC(=O)c1c(C(=O)OC)c2ccccn2c1-c1cc(OC)c(Br)c(=O)o1`: the TGI with DU-145 prostate, in the test with HOP-62 NSCLC, with NCI-H460 lung, with OVCAR-8 ovarian, in the test on SF-268 CNS and in the test on SK-MEL-5 melanoma was greater than 100 µM each time. Also, the TGI in the test with SK-OV-3 ovarian was greater than 100 µM; in the test with SNB-75 CNS, 66.3 µM; in the test with UO-31 renal, greater than 100 µM.
Turning to `Cc1cc(Cl)nc2nc(Cl)c(N)cc12`, the TGI in the test with DU-145 prostate worked out at 18 µM; in the test with HOP-62 NSCLC it was 19 µM; in the test on NCI-H460 lung it was 5.43 µM; in the test on OVCAR-8 ovarian it was 8.55 µM; in the test with SF-268 CNS, 3.5 µM; in the test with SK-MEL-5 melanoma, 24.6 µM. The TGI was found to be 37.8 µM with SK-OV-3 ovarian, 30 µM in the test on SNB-75 CNS, 4.3 µM in the test with U251 CNS and 9.54 µM in the test on UO-31 renal.
As to `Nc1ccc2[nH]c(-c3cccc(C(F)(F)F)c3)cc(=O)c2c1`, the GI50 with DU-145 prostate was 43.6 µM. Also, the TGI in the test with DU-145 prostate, in the test on HOP-62 NSCLC, in the test with NCI-H460 lung, with OVCAR-8 ovarian, in the test with SK-MEL-5 melanoma and with SK-OV-3 ovarian was greater than 100 µM each time. The TGI is 96.9 µM in the test with SNB-75 CNS, greater than 100 µM in the test on U251 CNS and greater than 100 µM with UO-31 renal.
As to `S=C1NC2=C(COc3ccccc32)C(c2ccc(Cl)cc2)N1` (centres undefined), the TGI worked out at 35.7 µM in the test with DU-145 prostate; 31 µM in the test with HOP-62 NSCLC; 41.7 µM with OVCAR-8 ovarian; 39.7 µM in the test on SF-268 CNS; 30.5 µM with SK-MEL-5 melanoma; 35.8 µM with SK-OV-3 ovarian. Moreover, the results for the TGI with SNB-75 CNS and in the test with UO-31 renal were 38 µM and 35.1 µM, respectively.
`COC1CCON1C(=O)c1ccccc1` (centres undefined): the TGI with DU-145 prostate, in the test with HOP-62 NSCLC, in the test with NCI-H460 lung, in the test with OVCAR-8 ovarian, in the test on SF-268 CNS and in the test on SK-MEL-5 melanoma was greater than 10 µM in each case. Also, the TGI in the test on SK-OV-3 ovarian, with SNB-75 CNS and with UO-31 renal was greater than 10 µM in each case.

Source of the values: PubChem BioAssay (NCI).
